System: 885724-159-R-J1-PDC complex spheroid viability
Experiment: Anticancer human tumor 885724-159-R-J1-PDC patient-derived pancreatic adenocarcinoma cell line growth inhibition [GQUAD]
Conditions: for IC50: curve of first compound; for viability, T/C: stronger effect = lower value
Outline: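 Tumor cells were grown as complex spheroids with HUVEC endothelial cells and mesenchymal stem cells as stroma. G-quadruplex stabilizers were combined with targeted agents over half-log dilutions from near the clinical Cmax, or from 10 microM.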

[1] = second compound 0.0316 µM, first compound 0.000999 µM
[2] = second compound 0.0316 µM, first compound 0.00316 µM
[3] = second compound 0.0316 µM, first compound 0.00999 µM
[4] = second compound 0.0316 µM, first compound 0.0316 µM
[5] = second compound 0.0316 µM, first compound 0.0999 µM
[6] = second compound 0.0316 µM, first compound 0.316 µM
[7] = second compound 0.1 µM, first compound 0.000999 µM
[8] = second compound 0.1 µM, first compound 0.00316 µM
[9] = second compound 0.1 µM, first compound 0.00999 µM
[10] = second compound 0.1 µM, first compound 0.0316 µM
[11] = second compound 0.1 µM, first compound 0.0999 µM
[12] = second compound 0.1 µM, first compound 0.316 µM
[13] = second compound 0.316 µM, first compound 0.000999 µM
[14] = second compound 0.316 µM, first compound 0.00316 µM
[15] = second compound 0.316 µM, first compound 0.00999 µM
[16] = second compound 0.316 µM, first compound 0.0316 µM
[17] = second compound 0.316 µM, first compound 0.0999 µM
[18] = second compound 0.316 µM, first compound 0.316 µM
[19] = second compound 1 µM, first compound 0.000999 µM
[20] = second compound 1 µM, first compound 0.00316 µM
[21] = second compound 1 µM, first compound 0.00999 µM
[22] = second compound 1 µM, first compound 0.0316 µM
[23] = second compound 1 µM, first compound 0.0999 µM
[24] = second compound 1 µM, first compound 0.316 µM
[25] = second compound 3.16 µM, first compound 0.000999 µM
[26] = second compound 3.16 µM, first compound 0.00316 µM
[27] = second compound 3.16 µM, first compound 0.00999 µM
[28] = second compound 3.16 µM, first compound 0.0316 µM
[29] = second compound 3.16 µM, first compound 0.0999 µM
[30] = second compound 3.16 µM, first compound 0.316 µM
[31] = second compound 10 µM, first compound 0.000999 µM
[32] = second compound 10 µM, first compound 0.00316 µM
[33] = second compound 10 µM, first compound 0.00999 µM
[34] = second compound 10 µM, first compound 0.0316 µM
[35] = second compound 10 µM, first compound 0.0999 µM
[36] = second compound 10 µM, first compound 0.316 µM
[37] = second compound 0.0316 µM, first compound 0.1 µM
[38] = second compound 0.0316 µM, first compound 1 µM
[39] = second compound 0.0316 µM, first compound 3.16 µM
[40] = second compound 0.0316 µM, first compound 10 µM
[41] = second compound 0.1 µM, first compound 0.1 µM
[42] = second compound 0.1 µM, first compound 1 µM
[43] = second compound 0.1 µM, first compound 3.16 µM
[44] = second compound 0.1 µM, first compound 10 µM
[45] = second compound 0.316 µM, first compound 0.1 µM
[46] = second compound 0.316 µM, first compound 1 µM
[47] = second compound 0.316 µM, first compound 3.16 µM
[48] = second compound 0.316 µM, first compound 10 µM
[49] = second compound 1 µM, first compound 0.1 µM
[50] = second compound 1 µM, first compound 1 µM
[51] = second compound 1 µM, first compound 3.16 µM
[52] = second compound 1 µM, first compound 10 µM
[53] = second compound 3.16 µM, first compound 0.1 µM
[54] = second compound 3.16 µM, first compound 1 µM
[55] = second compound 3.16 µM, first compound 3.16 µM
[56] = second compound 3.16 µM, first compound 10 µM
[57] = second compound 10 µM, first compound 0.1 µM
[58] = second compound 10 µM, first compound 1 µM
[59] = second compound 10 µM, first compound 3.16 µM
[60] = second compound 10 µM, first compound 10 µM
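Further: spheroids exposed to agents for seven days before readout.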
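Wherever viability, T/C is given: percent of vehicle control viability where 100% = DMSO wells.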

SMILES: Cc1[nH]c2ccccc2c1CCNCc1ccc(/C=C/C(=O)NO)cc1 + Cc1[nH]c2ccc(F)cc2c1-c1nc2c3cccnc3c3ncccc3c2[nH]1
- IC50 (second compound 0.0316 µM): 271 nM
- IC50 (second compound 0.1 µM): 305 nM
- IC50 (second compound 0.316 µM): 281 nM
- IC50 (second compound 1 µM): 213 nM
- IC50 (second compound 3.16 µM): < 0.999 nM
- IC50 (second compound 10 µM): 226 nM
- viability, T/C [1]: 87%
- viability, T/C [2]: 99%
- viability, T/C [3]: 93.4%
- viability, T/C [4]: 98.2%
- viability, T/C [5]: 106%
- viability, T/C [6]: 42.8%
- viability, T/C [7]: 95.9%
- viability, T/C [8]: 90.3%
- viability, T/C [9]: 87.8%
- viability, T/C [10]: 95%
- viability, T/C [11]: 99.6%
- viability, T/C [12]: 48.5%
- viability, T/C [13]: 101%
- viability, T/C [14]: 77.9%
- viability, T/C [15]: 83.1%
- viability, T/C [16]: 81.2%
- viability, T/C [17]: 78.9%
- viability, T/C [18]: 46.4%
- viability, T/C [19]: 75.5%
- viability, T/C [20]: 60.8%
- viability, T/C [21]: 66.4%
- viability, T/C [22]: 57.8%
- viability, T/C [23]: 82.2%
- viability, T/C [24]: 40.3%
- viability, T/C [25]: 18.1%
- viability, T/C [26]: 13.1%
- viability, T/C [27]: 19.2%
- viability, T/C [28]: 11.5%
- viability, T/C [29]: 21.2%
- viability, T/C [30]: 31.6%
- viability, T/C [31]: 68.1%
- viability, T/C [32]: 75.2%
- viability, T/C [33]: 64%
- viability, T/C [34]: 69.7%
- viability, T/C [35]: 81.6%
- viability, T/C [36]: 41.2%

SMILES: COc1cccc2c1C(=O)c1c(O)c3c(c(O)c1C2=O)CC(O)(C(=O)CO)CC3OC1CC(N)C(O)C(C)O1 (stereo not drawn) + CN(C)c1ccc(Nc2c3ccc(NC(=O)CCN4CCCC4)cc3nc3cc(NC(=O)CCN4CCCC4)ccc23)cc1
- IC50 (second compound 0.0316 µM): 2170 nM
- IC50 (second compound 0.1 µM): 2010 nM
- IC50 (second compound 0.316 µM): 1730 nM
- IC50 (second compound 1 µM): 1580 nM
- IC50 (second compound 3.16 µM): 1620 nM
- IC50 (second compound 10 µM): 1110 nM
- viability, T/C [4]: 101%
- viability, T/C [37]: 96.3%
- viability, T/C [6]: 96.2%
- viability, T/C [38]: 73.9%
- viability, T/C [39]: 38.1%
- viability, T/C [40]: 1.56%
- viability, T/C [10]: 89.4%
- viability, T/C [41]: 95.5%
- viability, T/C [12]: 81%
- viability, T/C [42]: 73.6%
- viability, T/C [43]: 35.4%
- viability, T/C [44]: 2.82%
- viability, T/C [16]: 88.6%
- viability, T/C [45]: 87.8%
- viability, T/C [18]: 80.7%
- viability, T/C [46]: 55.3%
- viability, T/C [47]: 40.5%
- viability, T/C [48]: 1.92%
- viability, T/C [22]: 81.1%
- viability, T/C [49]: 75%
- viability, T/C [24]: 68.6%
- viability, T/C [50]: 57%
- viability, T/C [51]: 39.8%
- viability, T/C [52]: 1.53%
- viability, T/C [28]: 83.8%
- viability, T/C [53]: 71%
- viability, T/C [30]: 78.7%
- viability, T/C [54]: 59.2%
- viability, T/C [55]: 35.1%
- viability, T/C [56]: 1.32%
- viability, T/C [34]: 74.2%
- viability, T/C [57]: 79.7%
- viability, T/C [36]: 59.1%
- viability, T/C [58]: 52.5%
- viability, T/C [59]: 32.7%
- viability, T/C [60]: 1.06%

SMILES: CC(C)n1c(=O)n(C)c2cnc3cc(F)c(-c4ccc(OCCCN5CCCCC5)nc4)cc3c21 + Cc1[nH]c2ccc(F)cc2c1-c1nc2c3cccnc3c3ncccc3c2[nH]1
- IC50 (second compound 0.0316 µM): > 10000 nM
- IC50 (second compound 0.1 µM): > 10000 nM
- IC50 (second compound 0.316 µM): > 10000 nM
- IC50 (second compound 1 µM): > 10000 nM
- IC50 (second compound 3.16 µM): 133 nM
- IC50 (second compound 10 µM): > 10000 nM
- viability, T/C [4]: 107%
- viability, T/C [37]: 95.2%
- viability, T/C [6]: 98.2%
- viability, T/C [38]: 92.9%
- viability, T/C [39]: 84.6%
- viability, T/C [40]: 83.2%
- viability, T/C [10]: 100%
- viability, T/C [41]: 99.2%
- viability, T/C [12]: 100%
- viability, T/C [42]: 91.3%
- viability, T/C [43]: 94.5%
- viability, T/C [44]: 78.9%
- viability, T/C [16]: 93.4%
- viability, T/C [45]: 102%
- viability, T/C [18]: 92.5%
- viability, T/C [46]: 79.8%
- viability, T/C [47]: 81.6%
- viability, T/C [48]: 74.2%
- viability, T/C [22]: 74.3%
- viability, T/C [49]: 69.2%
- viability, T/C [24]: 75%
- viability, T/C [50]: 70%
- viability, T/C [51]: 68.3%
- viability, T/C [52]: 59.5%
- viability, T/C [28]: 54.7%
- viability, T/C [53]: 43.4%
- viability, T/C [30]: 53.8%
- viability, T/C [54]: 42.9%
- viability, T/C [55]: 38.5%
- viability, T/C [56]: 25.3%
- viability, T/C [34]: 69.9%
- viability, T/C [57]: 71.6%
- viability, T/C [36]: 79.8%
- viability, T/C [58]: 76.1%
- viability, T/C [59]: 72.4%
- viability, T/C [60]: 63.2%

SMILES: Cc1[nH]c2ccccc2c1CCNCc1ccc(/C=C/C(=O)NO)cc1 + CN(C)c1ccc(Nc2c3ccc(NC(=O)CCN4CCCC4)cc3nc3cc(NC(=O)CCN4CCCC4)ccc23)cc1
- IC50 (second compound 0.0316 µM): > 316 nM
- IC50 (second compound 0.1 µM): > 316 nM
- IC50 (second compound 0.316 µM): 286 nM
- IC50 (second compound 1 µM): 214 nM
- IC50 (second compound 3.16 µM): 92.9 nM
- IC50 (second compound 10 µM): 152 nM
- viability, T/C [1]: 103%
- viability, T/C [2]: 98.3%
- viability, T/C [3]: 93.1%
- viability, T/C [4]: 96.9%
- viability, T/C [5]: 124%
- viability, T/C [6]: 60.1%
- viability, T/C [7]: 99.8%
- viability, T/C [8]: 91.7%
- viability, T/C [9]: 95%
- viability, T/C [10]: 125%
- viability, T/C [11]: 105%
- viability, T/C [12]: 54.1%
- viability, T/C [13]: 84.7%
- viability, T/C [14]: 94%
- viability, T/C [15]: 95.3%
- viability, T/C [16]: 84.6%
- viability, T/C [17]: 112%
- viability, T/C [18]: 45.7%
- viability, T/C [19]: 90.3%
- viability, T/C [20]: 75.6%
- viability, T/C [21]: 75.5%
- viability, T/C [22]: 77.5%
- viability, T/C [23]: 69.8%
- viability, T/C [24]: 40.3%
- viability, T/C [25]: 65.2%
- viability, T/C [26]: 81.4%
- viability, T/C [27]: 82.1%
- viability, T/C [28]: 73.1%
- viability, T/C [29]: 48.5%
- viability, T/C [30]: 40.1%
- viability, T/C [31]: 65%
- viability, T/C [32]: 58.3%
- viability, T/C [33]: 59.6%
- viability, T/C [34]: 55.6%
- viability, T/C [35]: 69.3%
- viability, T/C [36]: 30%

Reference: PubChem BioAssay AID2060502 (Molecular Pharmacology Branch, DTP, NCI, 2025)
